Measurements from patent US8012979B2, “Compounds and their uses 707” (AstraZeneca AB, priority 2007, dated 2011).

Biological target: T1, human active recombinant p38α-6His tagged (Homo sapiens, UniProt Q16539)
T1 construct: 6His
Assay: p38 Alpha Enzyme Assay (AlphaScreen, biotinylated-ATF2 substrate)
Type: biochemical
Conditions: pre-incubated 4 hours at 37° C., reaction initiated with ATP; 0.5 nM enzyme; read-out: p38 pIC50 (converted)

T1 sequence (Q16539 whole entry): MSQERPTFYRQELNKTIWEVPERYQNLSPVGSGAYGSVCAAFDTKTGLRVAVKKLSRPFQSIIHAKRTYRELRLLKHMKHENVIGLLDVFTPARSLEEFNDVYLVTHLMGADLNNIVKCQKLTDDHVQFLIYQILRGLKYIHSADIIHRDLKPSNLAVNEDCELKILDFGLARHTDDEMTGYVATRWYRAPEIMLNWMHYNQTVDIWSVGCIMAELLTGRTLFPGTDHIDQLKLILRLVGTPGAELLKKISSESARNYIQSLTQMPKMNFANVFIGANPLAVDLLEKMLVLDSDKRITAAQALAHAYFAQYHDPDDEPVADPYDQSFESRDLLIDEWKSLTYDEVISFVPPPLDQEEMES

Compound	IC50 [nM]
Cc1c(F)cc(C(=O)NC2CC2)cc1-c1ccc2c(=O)n(CC3CC3)cc(CN3CCN[C@@H](C)C3)c2c1 [Example 82, (S)—N-Cyclopropyl-3-(2-(cyclopropylmethyl)-4-((3-methylpiperazin-1-yl)methyl)-1-oxo-1,2-dihydroisoquinolin-6-yl)-5-fluoro-4-methylbenzamide]	0.1
Cc1ccc(C(=O)NC2CC2)cc1-c1ccc2c(=O)n(Cc3ccccn3)ccc2c1 [Example 126, N-Cyclopropyl-4-methyl-3-(1-oxo-2-(pyridin-2-ylmethyl)-1,2-dihydroisoquinolin-6-yl)benzamide]	10
Cc1ccc(C(=O)NC2CC2)cc1-c1ccc2c(=O)n(Cc3ccccc3)cc(C(=O)NC3CCN(C)CC3)c2c1 [Example 50, 2-Benzyl-6-{5-[(cyclopropylamino)carbonyl]-2-methylphenyl}-N-(1-methylpiperidin-4-yl)-1-oxo-1,2-dihydroisoquinoline-4-carboxamide]	2
Cc1ccc(C(=O)NC2CC2)cc1-c1ccc2c(=O)n(Cc3ccc(C(=O)N(C)CCN(C)C)cc3)ccc2c1 [Example 18, N-Cyclopropyl-3-(2-(4-((2-(dimethylamino)ethyl)(methyl)carbamoyl)benzyl)-1-oxo-1,2-dihydroisoquinolin-6-yl)-4-methylbenzamide]	2
Cc1ccc(C(=O)NC2CC2)cc1-c1ccc2c(=O)[nH]ccc2c1 [Example 11, N-Cyclopropyl-4-methyl-3-(1-oxo-1,2-dihydro-isoquinolin-6-yl)-benzamide]	25.1
Cc1ccc(C(=O)NC2CC2)cc1-c1ccc2c(=O)n(Cc3ccc(S(C)(=O)=O)cc3)ccc2c1 [Example 5, N-Cyclopropyl-3-[2-(4-methanesulfonyl-benzyl)-1-oxo-1,2-dihydro-isoquinolin-6-yl]-4-methyl-benzamide]	3.16
Cc1ccc(C(=O)NC2CC2)cc1-c1ccc2c(=O)n(Cc3ccccc3)cc(CCCN(C)C)c2c1 [Example 99, 3-(2-Benzyl-4-(3-(dimethylamino)propyl)-1-oxo-1,2-dihydroisoquinolin-6-yl)-N-cyclopropyl-4-methylbenzamide]	0.398
Cc1ccc(C(=O)NC2CC2)cc1-c1ccc2c(=O)n(Cc3ccccc3)cc(C(=O)N3CCN(CCO)CC3)c2c1 [Example 52, 3-(2-Benzyl-4-{[4-(2-hydroxyethyl)piperazin-1-yl]carbonyl}-1-oxo-1,2-dihydroisoquinolin-6-yl)-N-cyclopropyl-4-methylbenzamide]	10
Cc1c(F)cc(C(=O)NC2CC2)cc1-c1ccc2c(=O)n(CC3CC3)cc(CN3C[C@@H](N)C[C@@H]3CO)c2c1 [Example 119, 3-(4-(((2R,4S)-4-Amino-2-(hydroxymethyl)pyrrolidin-1-yl)methyl)-2-(cyclopropylmethyl)-1-oxo-1,2-dihydroisoquinolin-6-yl)-N-cyclopropyl-5-fluoro-4-methylbenzamide]	0.398
Cc1c(F)cc(C(=O)NC2CC2)cc1-c1ccc2c(=O)n(CC3CC3)cc(CN3CCNC(CO)CC3)c2c1 (stereo not drawn) [Example 127, N-Cyclopropyl-3-[2-cyclopropylmethyl-4-(5-hydroxymethyl-[1,4]diazepan-1-ylmethyl)-1-oxo-1,2-dihydro-isoquinolin-6-yl]-5-fluoro-4-methyl-benzamide]	0.158
Cc1c(F)cc(C(=O)NC2CC2)cc1-c1ccc2c(=O)n(CC3CC3)cc(CN3CCC[C@H]3CN)c2c1 [Example 128, (S)-3-(4-((2-(Aminomethyl)pyrrolidin-1-yl)methyl)-2-(cyclopropylmethyl)-1-oxo-1,2-dihydroisoquinolin-6-yl)-N-cyclopropyl-5-fluoro-4-methylbenzamide]	0.316
Cc1c(F)cc(C(=O)NC2CC2)cc1-c1ccc2c(=O)n(CC3CC3)cc(CN3CC[C@@H](N)C3)c2c1 [Example 109, (R)-3-(4-((3-Aminopyrrolidin-1-yl)methyl)-2-(cyclopropylmethyl)-1-oxo-1,2-dihydroisoquinolin-6-yl)-N-cyclopropyl-5-fluoro-4-methylbenzamide]	1.58
Cc1ccc(C(=O)NC2CC2)cc1-c1ccc2c(=O)n(Cc3ccc(C4CCNCC4)cc3)cc(C)c2c1 [Example 97, N-Cyclopropyl-4-methyl-3-(4-methyl-1-oxo-2-(4-(piperidin-4-yl)benzyl)-1,2-dihydroisoquinolin-6-yl)benzamide]	0.251

Results, then the molecule that gave them:

IC50 [nM]	Compound
7.94	Cc1ccc(C(=O)NC2CC2)cc1-c1ccc2c(=O)n(CC3CC3)cc(CNC3CCN(C)CC3)c2c1 [Example 65, N-Cyclopropyl-3-(2-(cyclopropylmethyl)-4-((1-methylpiperidin-4-ylamino)methyl)-1-oxo-1,2-dihydroisoquinolin-6-yl)-4-methylbenzamide]
3.16	CCC(CC)Cn1ccc2cc(-c3cc(C(=O)NC4CC4)ccc3C)ccc2c1=O [Example 123, N-Cyclopropyl-3-(2-(2-ethylbutyl)-1-oxo-1,2-dihydroisoquinolin-6-yl)-4-methylbenzamide]
0.631	Cc1ccc(C(=O)NC2CC2)cc1-c1ccc2c(=O)n(CC3CC3)cc(CN3CCN(C)CC3)c2c1 [Example 74, N-Cyclopropyl-3-(2-(cyclopropylmethyl)-4-((4-methylpiperazin-1-yl)methyl)-1-oxo-1,2-dihydroisoquinolin-6-yl)-4-methylbenzamide]
0.0631	Cc1c(F)cc(C(=O)NC2CC2)cc1-c1ccc2c(=O)n(CC3CC3)cc(CN3CCNCC3)c2c1 [Example 88, N-Cyclopropyl-3-(2-(cyclopropylmethyl)-1-oxo-4-(piperazin-1-ylmethyl)-1,2-dihydroisoquinolin-6-yl)-5-fluoro-4-methylbenzamide]
1.58	Cc1ccc(C(=O)NC2CC2)cc1-c1ccc2c(=O)n(CC3CC3)ccc2c1 [Example 122, N-Cyclopropyl-3-(2-cyclopropylmethyl-1-oxo-1,2-dihydro-isoquinolin-6-yl)-4-methylbenzamide]
1.26	Cc1ccc(C(=O)NC2CC2)cc1-c1ccc2c(=O)n(CC3CC3)cc(CN3CCCN(C(C)C)CC3)c2c1 [Example 73, N-Cyclopropyl-3-(2-(cyclopropylmethyl)-4-((4-isopropyl-1,4-diazepan-1-yl)methyl)-1-oxo-1,2-dihydroisoquinolin-6-yl)-4-methylbenzamide]
0.631	Cc1ccc(C(=O)NC2CC2)cc1-c1ccc2c(=O)n(Cc3ccc(OCCN4CCCC4)nc3)ccc2c1 [Example 31, N-Cyclopropyl-4-methyl-3-(1-oxo-2-((6-(2-(pyrrolidin-1-yl)ethoxy)pyridin-3-yl)methyl)-1,2-dihydroisoquinolin-6-yl)benzamide]
0.126	Cc1ccc(C(=O)NC2CC2)cc1-c1ccc2c(=O)n(Cc3ccc(S(C)(=O)=O)cc3)cc(CN3CCCN(C)CC3)c2c1 [Example 103, N-Cyclopropyl-4-methyl-3-(4-((4-methyl-1,4-diazepan-1-yl)methyl)-2-(4-(methylsulfonyl)benzyl)-1-oxo-1,2-dihydroisoquinolin-6-yl)benzamide]
1.58	Cc1ccc(C(=O)NC2CC2)cc1-c1ccc2c(=O)n(Cc3ccncc3)cc(C(=O)NC3CCNCC3)c2c1 [Example 57, 6-(5-Cyclopropylcarbamoyl-2-methyl-phenyl)-1-oxo-2-pyridin-4-ylmethyl-1,2-dihydro-isoquinoline-4-carboxylic acid piperidin-4-ylamide]
1	Cc1ccc(C(=O)NC2CC2)cc1-c1ccc2c(=O)n(Cc3ccccc3)cc(CCCN3CCCC3)c2c1 [Example 100, 3-(2-Benzyl-1-oxo-4-(3-(pyrrolidin-1-yl)propyl)-1,2-dihydroisoquinolin-6-yl)-N-cyclopropyl-4-methylbenzamide]
0.126	Cc1c(F)cc(C(=O)NC2CC2)cc1-c1ccc2c(=O)n(Cc3ccc(S(C)(=O)=O)cc3)cc(CN3CCN(C)CC3)c2c1 [Example 112, N-Cyclopropyl-3-fluoro-4-methyl-5-(4-((4-methylpiperazin-1-yl)methyl)-2-(4-(methylsulfonyl)benzyl)-1-oxo-1,2-dihydroisoquinolin-6-yl)benzamide]
3.16	Cc1ccc(C(=O)NC2CC2)cc1-c1ccc2c(=O)n(Cc3ccc(CN4CCCC4)cc3)ccc2c1 [Example 25, N-Cyclopropyl-4-methyl-3-(1-oxo-2-(4-(pyrrolidin-1-ylmethyl)benzyl)-1,2-dihydroisoquinolin-6-yl)benzamide]
2.51	Cc1ccc(C(=O)NC2CC2)cc1-c1ccc2c(=O)n(Cc3ccc(C4CCNCC4)cc3)c(C)cc2c1 [Example 98, N-Cyclopropyl-4-methyl-3-(3-methyl-1-oxo-2-(4-(piperidin-4-yl)benzyl)-1,2-dihydroisoquinolin-6-yl)benzamide]
1.58	Cc1c(F)cc(C(=O)NC2CC2)cc1-c1ccc2c(=O)n(CC3CC3)cc(CNCCCN(C)C)c2c1 [Example 77, N-Cyclopropyl-3-(2-(cyclopropylmethyl)-4-((3-(dimethylamino)propylamino)methyl)-1-oxo-1,2-dihydroisoquinolin-6-yl)-5-fluoro-4-methylbenzamide]
0.251	Cc1ccc(C(=O)NC2CC2)cc1-c1ccc2c(=O)n(Cc3ccc(C(=O)NS(C)(=O)=O)cc3)cc(CN3CCCN(C)CC3)c2c1 [Example 114, N-Cyclopropyl-4-methyl-3-(4-((4-methyl-1,4-diazepan-1-yl)methyl)-2-(4-(methylsulfonylcarbamoyl)benzyl)-1-oxo-1,2-dihydroisoquinolin-6-yl)benzamide]
0.631	Cc1c(F)cc(C(=O)NC2CC2)cc1-c1ccc2c(=O)n(CC3CC3)cc(CN3CCC[N+]([O-])(CCO)CC3)c2c1 (stereo not drawn) [Example 79, 4-((6-(5-(Cyclopropylcarbamoyl)-3-fluoro-2-methylphenyl)-2-(cyclopropylmethyl)-1-oxo-1,2-dihydroisoquinolin-4-yl)methyl)-1-(2-hydroxyethyl)-1,4-diazepane 1-oxide]
3.98	Cc1ccc(C(=O)NC2CC2)cc1-c1ccc2c(=O)n(CC3CC3)cc(C(=O)N3CC[C@@H](N)C3)c2c1 [Example 37, (R)-3-(4-(3-Aminopyrrolidine-1-carbonyl)-2-(cyclopropylmethyl)-1-oxo-1,2-dihydroisoquinolin-6-yl)-N-cyclopropyl-4-methylbenzamide]
